Experiments:
Mus musculus [1] = organism: Mus musculus; conditions: in vivo
Description: Logarithm of toxic activity (1/lethal dose) in mice bearing P388 leukemia on chronic regimen (Q 1-9)

[2] = Compound was tested for toxicity in P388 tumored mice; assay type: organism-based; conditions: mouse, in vivo
[3] = Compound was tested for toxicity in non tumored mice; assay type: organism-based; conditions: mouse, in vivo
physchem = conditions: octanol/water
Description: Partition coefficient (logP)

Mus musculus [4] = assay: Percent increase in life-span against in vivo P388 murine leukemia at a dose 0.06 mg/kg in trail 1; assay type: functional
Mus musculus [5] = assay: Percent increase in life-span against in vivo P388 murine leukemia at a dose 0.06 mg/kg in trail 2; assay type: functional
Mus musculus [6] = assay: Percent increase in life-span against in vivo P388 murine leukemia at a dose 0.12 mg/kg in trail 1; assay type: functional
Mus musculus [7] = assay: Percent increase in life-span against in vivo P388 murine leukemia at a dose 0.12 mg/kg in trail 2; assay type: functional
Mus musculus [8] = assay: Percent increase in life-span against in vivo P388 murine leukemia at a dose 0.25 mg/kg in trail 1; assay type: functional
Mus musculus [9] = assay: Percent increase in life-span against in vivo P388 murine leukemia at a dose 0.25 mg/kg in trail 2; assay type: functional
Mus musculus [10] = assay: Percent increase in life-span against in vivo P388 murine leukemia at a dose 0.5 mg/kg in trail 1; assay type: functional
Mus musculus [11] = assay: Percent increase in life-span against in vivo P388 murine leukemia at a dose 0.5 mg/kg in trail 2; assay type: functional
Mus musculus [12] = assay: Percent increase in life-span against in vivo P388 murine leukemia at a dose 0.78 mg/kg in trail 2; assay type: functional
Mus musculus [13] = assay: Percent increase in life-span against in vivo P388 murine leukemia at a dose 1.56 mg/kg in trail 1; assay type: functional
Mus musculus [14] = assay: Percent increase in life-span against in vivo P388 murine leukemia at a dose 1.56 mg/kg in trail 2; assay type: functional
Mus musculus [15] = assay: Percent increase in life-span against in vivo P388 murine leukemia at a dose 12.5 mg/kg in trail 2; assay type: functional
Mus musculus [16] = assay: Percent increase in life-span against in vivo P388 murine leukemia at a dose 3.12 mg/kg in trail 1; assay type: functional
Mus musculus [17] = assay: Percent increase in life-span against in vivo P388 murine leukemia at a dose 3.12 mg/kg in trail 2; assay type: functional
Mus musculus [18] = assay: Percent increase in life-span against in vivo P388 murine leukemia at a dose 6.25 mg/kg in trail 1; assay type: functional
Mus musculus [19] = assay: Percent increase in life-span against in vivo P388 murine leukemia at a dose 6.25 mg/kg in trail 2; assay type: functional
Mus musculus [20] = assay: Percent increase in life-span against in vivo P388 murine leukemia at a dose 0.78 mg/kg in trail 1; assay type: functional
Mus musculus [21] = assay: Percent increase in life-span against in vivo P388 murine leukemia at a dose 0.39 mg/kg in trail 2; assay type: functional
Mus musculus [22] = assay: Percent increase in life-span against in vivo P388 murine leukemia at a dose 0.39 mg/kg) in trail 1; assay type: functional

SMILES | Log 1/LD50 (Mus musculus [1]) | LD50 [2] [mg/kg] | LD50 [3] [mg/kg] | also measured
COc1cc2c(c(OC)c1OC)-c1ccc(OC)c(=O)cc1[C@@H](N)CC2 [DEACETYLCOLCHICINE] | 3.71 | – | – | –
COc1cc2c(c(OC)c1OC)-c1ccc(OC)c(=O)cc1[C@@H](NC(=O)c1ccc([N+](=O)[O-])cc1)CC2 | 4.41 | 20 | 25 | –
COc1cc2c(c(OC)c1OC)-c1ccc(OC)c(=O)cc1[C@@H](NC(=O)c1ccccc1)CC2 | 4.24 | – | – | –
COC(=O)C(N)CCCC/N=c1\ccc2c(cc1O)[C@@H](NC(C)=O)CCc1cc(OC)c(OC)c(OC)c1-2 (some centres undefined) | 3 | – | – | –
COc1cc2c(c(OC)c1OC)-c1ccc(OC)c(=O)cc1[C@@H](N(C)C)CC2 | 4.21 | – | – | –
COc1cc2c(c(OC)c1OC)-c1ccc(OC)c(=O)cc1[C@@H](NC(=O)CF)CC2 | 5.69 | – | – | –
COc1cc2c(c(OC)c1OC)-c1ccc(OC)c(=O)cc1[C@@H](NC(=O)C(F)(F)F)CC2 | 5.73 | 0.8 | 1.9 | –
COc1c(CO)c2c(c(OC)c1OC)-c1ccc(OC)c(=O)cc1[C@@H](NC(C)=O)CC2 | 3.4 | – | – | logP (physchem): 4.58
COc1c(C#N)c2c(c(OC)c1OC)-c1ccc(OC)c(=O)cc1[C@@H](NC(C)=O)CC2 | 3.8 | – | – | logP (physchem): 4.46
COc1cc2c(c(OC)c1OC)-c1ccc(SC)c(=O)cc1[C@@H](NO[C@H]1OC[C@@H](O)[C@@H](O)[C@@H]1O)CC2 | 3.98 | 102 | 251 | logP (physchem): 1.4
CN[C@H]1CCc2cc(OC)c(OC)c(OC)c2-c2ccc(OC)c(=O)cc21 [DEMECOLCINE] | 3.63 | – | – | –
COc1cc2c(c(OC)c1OC)-c1cc/c(=N\Cc3ccccc3)c(O)cc1[C@@H](NC(C)=O)CC2 | 4.28 | 25.1 | 41 | –
COc1cc2c(c(OC)c1OC)-c1ccc(SC)c(=O)cc1[C@@H](N)CC2 | 3.75 | 69 | 177 | –
COc1cc2c(c(OC)c1OC)-c1ccc(SCc3ccccc3)c(=O)cc1[C@@H](NC(C)=O)CC2 | 4.22 | – | – | –
COc1cc2c(c(OC)c1OC)-c1ccc(OC)c(=O)cc1[C@@H](NC(C)=O)CC2 [COLCHICINE] | 5.46 | 1.4 | 1.6 | ILS at 0.06 mg/kg (Mus musculus [4]): 27%; ILS at 0.06 mg/kg (Mus musculus [5]): 24%; ILS at 0.12 mg/kg (Mus musculus [6]): 33%; ILS at 0.12 mg/kg (Mus musculus [7]): 40%; ILS at 0.25 mg/kg (Mus musculus [8]): 46%; ILS at 0.25 mg/kg (Mus musculus [9]): 58%; ILS at 0.5 mg/kg (Mus musculus [10]): 78%; ILS at 0.5 mg/kg (Mus musculus [11]): 89%
COc1c(C=O)c2c(c(OC)c1OC)-c1ccc(OC)c(=O)cc1[C@@H](NC(C)=O)CC2 | 4.14 | – | – | ILS at 0.78 mg/kg (Mus musculus [12]): 49%; ILS at 1.56 mg/kg (Mus musculus [13]): 60%; ILS at 1.56 mg/kg (Mus musculus [14]): 75%; ILS at 12.5 mg/kg (Mus musculus [15]): 2%; ILS at 3.12 mg/kg (Mus musculus [16]): 94%; ILS at 3.12 mg/kg (Mus musculus [17]): 80%; ILS at 6.25 mg/kg (Mus musculus [18]): 105%; ILS at 6.25 mg/kg (Mus musculus [19]): 105%; ILS at 0.78 mg/kg (Mus musculus [20]): 54%; ILS at 0.39 mg/kg (Mus musculus [21]): 49%; ILS at 0.39 mg/kg (Mus musculus [22]): 51%; logP (physchem): 5.92
COc1cc2c(c(OC)c1OC)-c1ccc(SC)c(=O)cc1[C@@H](NC(=O)C(F)(F)F)CC2 | 5.51 | 1.4 | 3.5 | –
COc1cc2c(c(OC)c1OC)-c1ccc(SC)c(=O)cc1[C@@H](NO[C@H]1O[C@@H](COC(C)=O)[C@H](OC(C)=O)[C@@H](OC(C)=O)[C@@H]1OC(C)=O)CC2 | 3.81 | – | – | logP (physchem): 4.61
COc1cc2c(c(OC)c1OC)-c1ccc(OC)c(=O)cc1[C@@H](NC=O)CC2 | 5.16 | 2.7 | 5 | –
CNc1ccc2c(cc1=O)[C@@H](NC(C)=O)CCc1cc(OC)c(OC)c(OC)c1-2 | 5.72 | 0.8 | 1.4 | –
COc1cc2c(c(OC)c1OC)-c1ccc(SC)c(=O)cc1[C@@H](NC(=O)CCl)CC2 | 5.65 | – | – | –
COc1cc2c(c(OC)c1OC)-c1ccc(SC)c(=O)cc1[C@@H](NC(=O)CO)CC2 | 5.66 | – | – | –
COC1=C2C(=CC(=O)C1OC)CC[C@H](NC(C)=O)c1cc(=O)c(OC)ccc12 (some centres undefined) | 5.82 | – | – | logP (physchem): 0.93
COc1cc2c(c(OC)c1OC)-c1ccc(SC)c(=O)cc1[C@@H](NO[C@H]1O[C@@H](CO)[C@H](O)[C@@H](O)[C@@H]1O)CC2 | 3.71 | – | – | logP (physchem): 1.25
COc1cc2c(c(OC)c1OC)-c1ccc(SC)c(=O)cc1[C@@H](NC(=O)NCCCl)CC2 | 4.93 | – | – | –
COc1cc2c(c(OC)c1OC)-c1ccc(SC)c(=O)cc1[C@@H](NC(C)=O)CC2 [THIOCOLCHICINE] | 5.62 | 1 | 1 | –
COc1cc2c(c(OC)c1OC)-c1ccc(OC)c(=O)cc1[C@@H](NC(=O)CCl)CC2 | 5.54 | – | – | –
CCOC(=O)N[C@H]1CCc2cc(OC)c(OC)c(OC)c2-c2ccc(SC)c(=O)cc21 | 4.19 | – | – | –
